{"source": "patent US20100160454A1", "about": "“ANTIMICROBIAL AGENTS, COMPOSITIONS AND PRODUCTS CONTAINING THE SAME, AND METHODS OF USING THE COMPOSITIONS AND PRODUCTS” (Eastman Chemical Company, priority 2008, published 2010)", "format_in_all_cases": "cell-based", "key": {"[1]": {"tested_on": "Microsporum canis (ATTC 9084)", "assay": "Challenge testing against pathogenic fungi, growth rating in broth tubes", "set-up": "key: 0: No visible growth; 1: Some growth in tube; 2: Moderate growth in tube; 3: Good growth in tube; 4: Extreme growth in tube", "outline": "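Fungi grown in Sabouraud dextrose broth (M. furfur with 2% olive oil/0.2% Tween 80), 22±2 °C; tubes of 1,4-CHDM-D90 dilutions inoculated, static incubation, subcultured at 3, 14, 30 days, triplicate. Growth rated 0–4: visually (M. canis), INT redox dye (T. rubrum), pellicle formation (M. furfur); 30-day MIC.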"}, "[2]": {"tested_on": "Staphylococcus epidermidis ATCC 12228", "assay": "Microbiological challenge testing in BPW broth, graded subculture counts", "protocol": "(§1) The microorganisms in the table below were used in challenge tests. They were either ATCC (American Type Culture Collection) or “wild type” as indicated. Wild type organisms were problematic organisms previously isolated from chemical products.\n(§2) All of the microorganisms were grown in Tryptose Soy Broth (TSB), DIFCO™ available from Becton, Dickinson and Company, containing 1% dextrose. Candida albicans and Aspergillus niger, were incubated at 22° C.+/−2° C. for at least 96 hours. All bacteria were incubated at 35° C.+/−2° C. in a humidified incubator for at least 96 hours.\n(§3) The following procedure was followed to determine the amount of each challenge material (inoculum broth) needed to produce a 10^8 CFU/mL challenge, which is equivalent to a final test-sample microbial concentration of 10^5 to 10^6 CFU/mL (CFU=colony forming units).\n(§4) Using a sterile pipette, 1 mL of the growth from each TSB culture was transferred into tubes of 9 mL buffered water (pH 7.2 phosphate buffer) and mixed thoroughly. This was repeated to make serial 1:10 dilutions. Then, 0.1 mL of each sample and dilution was inoculated onto agar plates to produce the equivalent of a further 1:10 dilution. (C. albicans and A. niger were inoculated onto SABD and bacteria were inoculated onto Plate Count Agar (PCA), DIFCO™ available from Becton, Dickinson and Company.) (The normal volume plated for most samples was 0.1 mL. Some samples that could be very low in micro-organisms (high dilutions) were plated using 0.5 mL of inoculum, in order to produce reproducible counts.) The samples were distributed on the plates using the spread-plate technique. The spread-plate technique is carried out by spreading the sample over the entire plate surface using a sterile spreading rod while rotating the plate with a rotary auto-plater. After the inoculum was absorbed completely by the agar, each plate was inverted and incubated (fungi at 22° C.+/−2° C. and bacteria at 35° C.+/−2° C.).\n(§5) After incubation for at least 48 hours, colonies that had developed on the agar plates were counted (CFU) and recorded with the corresponding dilution. If counting had to be delayed temporarily, plates were refrigerated, preferably no more than 24 hours, until they could be counted. The number of CFU/mL was determined by multiplying the plate count by the dilution factor of the plate counted.\n(§6) Turbidity in Nepholemetric Turbidity Units (NTU) was measured for each serial dilution using the HF-Micro 100 Model Turbidimeter. For each microorganism, the plate counts were compared to the turbidity readings.\n(§7) Control substrates (“broth alone”) were prepared for each microorganism separately in triplicate by adding 13.5 mL of Buffered Peptone Water broth (BPW) containing 1% dextrose to each 20-mL glass tube, then adding 1.5 mL challenge material to produce a final concentration at time zero of 10^5 to 10^6 CFU/mL and a total volume of 15 mL.\n(§8) Test sample substrates were prepared containing each test material listed below at the concentrations shown for challenge testing with each microorganism separately. Sample substrates were prepared in triplicate, except the substrates containing butoxyethanol which were prepared in duplicate. Substrates were prepared by adding BPW containing 1% dextrose to each 20-mL glass tube, then adding the test material in the amount appropriate to achieve the desired weight/volume percent and to achieve a total volume of BPW plus dextrose plus test material of 13.5 mL. Then 1.5 mL challenge material was added to produce a final concentration at time zero of 10^5 to 10^6 CFU/mL and a total test sample substrate volume of 15 mL."}, "[3]": {"tested_on": "Streptococcus mutans ATCC 35668", "assay": "Microbiological challenge testing in BPW broth, graded subculture counts", "protocol": "as §1, §2, §3, §4, §5, §6, §7, §8"}, "[4]": {"tested_on": "Burkholderia cepacia Wild type", "assay": "Microbiological challenge testing in BPW broth, graded subculture counts", "conditions": "B. cepacia", "protocol": "as §1, §2, §3, §4, §5, §6, §7, §8"}}, "data": [{"smiles": "OCC1CCCC(CO)C1", "note": "(stereo not drawn) [1,3-CHDM, 1,3-cyclohexanedimethanol]", "values": [{"measurement": "M. canis growth rating, 3 day", "setting": "[1]; 0.5% weight/volume", "result": 2}, {"measurement": "M. canis growth rating, 14 day", "setting": "[1]; 0.5% weight/volume", "result": 1}, {"measurement": "M. canis growth rating, 30 day", "setting": "[1]; 0.5% weight/volume", "result": 1}, {"measurement": "M. canis growth rating, 3 day", "setting": "[1]; 1.25% weight/volume", "result": 2}, {"measurement": "M. canis growth rating, 14 day", "setting": "[1]; 1.25% weight/volume", "result": 1}, {"measurement": "M. canis growth rating, 30 day", "setting": "[1]; 1.25% weight/volume", "result": 1}, {"measurement": "M. canis growth rating, 3 day", "setting": "[1]; 2.5% weight/volume", "result": 0}, {"measurement": "M. canis growth rating, 14 day", "setting": "[1]; 2.5% weight/volume", "result": 0}, {"measurement": "M. canis growth rating, 30 day", "setting": "[1]; 2.5% weight/volume", "result": 0}, {"measurement": "M. canis growth rating, 3 day", "setting": "[1]; 5.0% weight/volume", "result": 2}, {"measurement": "M. canis growth rating, 14 day", "setting": "[1]; 5.0% weight/volume", "result": 1}, {"measurement": "M. canis growth rating, 30 day", "setting": "[1]; 5.0% weight/volume", "result": 1}, {"measurement": "S. epidermidis growth grade, 3 day", "setting": "[2]; 0.5% weight/volume", "result": "4 (1000 to 10,000 colonies countable (thus 10,000 CFU/mL to 100,000 CFU/mL))"}, {"measurement": "S. epidermidis growth grade, 13 day", "setting": "[2]; 0.5% weight/volume", "result": "4 (1000 to 10,000 colonies countable (thus 10,000 CFU/mL to 100,000 CFU/mL))"}, {"measurement": "S. epidermidis growth grade, 30 day", "setting": "[2]; 0.5% weight/volume", "result": "4 (1000 to 10,000 colonies countable (thus 10,000 CFU/mL to 100,000 CFU/mL))"}, {"measurement": "S. epidermidis growth grade, 3 day", "setting": "[2]; 1.25% weight/volume", "result": "4 (1000 to 10,000 colonies countable (thus 10,000 CFU/mL to 100,000 CFU/mL))"}, {"measurement": "S. epidermidis growth grade, 13 day", "setting": "[2]; 1.25% weight/volume", "result": 3.7}, {"measurement": "S. epidermidis growth grade, 30 day", "setting": "[2]; 1.25% weight/volume", "result": "4 (1000 to 10,000 colonies countable (thus 10,000 CFU/mL to 100,000 CFU/mL))"}, {"measurement": "S. epidermidis growth grade, 3 day", "setting": "[2]; 2.5% weight/volume", "result": "4 (1000 to 10,000 colonies countable (thus 10,000 CFU/mL to 100,000 CFU/mL))"}, {"measurement": "S. epidermidis growth grade, 13 day", "setting": "[2]; 2.5% weight/volume", "result": "3 (100 to 1000 colonies (thus 1000 to 10,000 CFU/mL))"}, {"measurement": "S. epidermidis growth grade, 30 day", "setting": "[2]; 2.5% weight/volume", "result": "4 (1000 to 10,000 colonies countable (thus 10,000 CFU/mL to 100,000 CFU/mL))"}, {"measurement": "S. epidermidis growth grade, 3 day", "setting": "[2]; 5.0% weight/volume", "result": "2 (52 to 100 colonies counted (thus 520 to 1000 CFU/mL))"}, {"measurement": "S. epidermidis growth grade, 13 day", "setting": "[2]; 5.0% weight/volume", "result": "1 (0 to 51 colonies counted (thus 10 to 510 CFU/mL based on 0.1-mL sample))"}, {"measurement": "S. epidermidis growth grade, 30 day", "setting": "[2]; 5.0% weight/volume", "result": "3 (100 to 1000 colonies (thus 1000 to 10,000 CFU/mL))"}, {"measurement": "S. mutans growth grade, 3 day", "setting": "[3]; 0.5% weight/volume", "result": "5 (More than 10,000 colonies estimated (thus more than 100,000 CFU/mL))"}, {"measurement": "S. mutans growth grade, 13 day", "setting": "[3]; 0.5% weight/volume", "result": "4 (1000 to 10,000 colonies countable (thus 10,000 CFU/mL to 100,000 CFU/mL))"}, {"measurement": "S. mutans growth grade, 30 day", "setting": "[3]; 0.5% weight/volume", "result": "4 (1000 to 10,000 colonies countable (thus 10,000 CFU/mL to 100,000 CFU/mL))"}, {"measurement": "S. mutans growth grade, 3 day", "setting": "[3]; 1.25% weight/volume", "result": "4 (1000 to 10,000 colonies countable (thus 10,000 CFU/mL to 100,000 CFU/mL))"}, {"measurement": "S. mutans growth grade, 13 day", "setting": "[3]; 1.25% weight/volume", "result": "4 (1000 to 10,000 colonies countable (thus 10,000 CFU/mL to 100,000 CFU/mL))"}, {"measurement": "S. mutans growth grade, 30 day", "setting": "[3]; 1.25% weight/volume", "result": "4 (1000 to 10,000 colonies countable (thus 10,000 CFU/mL to 100,000 CFU/mL))"}, {"measurement": "S. mutans growth grade, 3 day", "setting": "[3]; 2.5% weight/volume", "result": "4 (1000 to 10,000 colonies countable (thus 10,000 CFU/mL to 100,000 CFU/mL))"}, {"measurement": "S. mutans growth grade, 13 day", "setting": "[3]; 2.5% weight/volume", "result": "4 (1000 to 10,000 colonies countable (thus 10,000 CFU/mL to 100,000 CFU/mL))"}, {"measurement": "S. mutans growth grade, 30 day", "setting": "[3]; 2.5% weight/volume", "result": "4 (1000 to 10,000 colonies countable (thus 10,000 CFU/mL to 100,000 CFU/mL))"}, {"measurement": "S. mutans growth grade, 3 day", "setting": "[3]; 5.0% weight/volume", "result": "2 (52 to 100 colonies counted (thus 520 to 1000 CFU/mL))"}, {"measurement": "S. mutans growth grade, 13 day", "setting": "[3]; 5.0% weight/volume", "result": 0}, {"measurement": "S. mutans growth grade, 30 day", "setting": "[3]; 5.0% weight/volume", "result": 0}, {"measurement": "Grade", "setting": "[4]; 0.5% (wt/vol), 3 day", "result": "5 (More than 10,000 colonies estimated (thus more than 100,000 CFU/mL))"}, {"measurement": "Grade", "setting": "[4]; 0.5% (wt/vol), 14 day", "result": "5 (More than 10,000 colonies estimated (thus more than 100,000 CFU/mL))"}, {"measurement": "Grade", "setting": "[4]; 0.5% (wt/vol), 30 day", "result": "5 (More than 10,000 colonies estimated (thus more than 100,000 CFU/mL))"}, {"measurement": "Grade", "setting": "[4]; 1.25% (wt/vol), 3 day", "result": 4.7}, {"measurement": "Grade", "setting": "[4]; 1.25% (wt/vol), 14 day", "result": 4.7}, {"measurement": "Grade", "setting": "[4]; 1.25% (wt/vol), 30 day", "result": 4.7}, {"measurement": "Grade", "setting": "[4]; 2.5% (wt/vol), 3 day", "result": "4 (1000 to 10,000 colonies countable (thus 10,000 CFU/mL to 100,000 CFU/mL))"}, {"measurement": "Grade", "setting": "[4]; 2.5% (wt/vol), 14 day", "result": "4 (1000 to 10,000 colonies countable (thus 10,000 CFU/mL to 100,000 CFU/mL))"}, {"measurement": "Grade", "setting": "[4]; 2.5% (wt/vol), 30 day", "result": "4 (1000 to 10,000 colonies countable (thus 10,000 CFU/mL to 100,000 CFU/mL))"}, {"measurement": "Grade", "setting": "[4]; 5.0% (wt/vol), 3 day", "result": "3 (100 to 1000 colonies (thus 1000 to 10,000 CFU/mL))"}, {"measurement": "Grade", "setting": "[4]; 5.0% (wt/vol), 14 day", "result": "1 (0 to 51 colonies counted (thus 10 to 510 CFU/mL based on 0.1-mL sample))"}, {"measurement": "Grade", "setting": "[4]; 5.0% (wt/vol), 30 day", "result": 3.3}]}]}
